From ChEMBL document CHEMBL1147277, “Pentagalloylglucose, a xanthine oxidase inhibitor from a Paraguayan crude drug, "Molle-i" (Schinus terebinthifolius)” (J Nat Prod, 1989)

What was measured:
[1] = target: T1, Xanthine dehydrogenase/oxidase (Bos taurus, UniProt P80457); test: Inhibition of cow milk xanthine oxidase
[2] = target: T1, Xanthine dehydrogenase/oxidase; test: Inhibition of cow milk xanthine oxidase by Lineweaver-Burke plot analysis; conditions: read-out: Activity

T1 sequence (P80457 whole entry): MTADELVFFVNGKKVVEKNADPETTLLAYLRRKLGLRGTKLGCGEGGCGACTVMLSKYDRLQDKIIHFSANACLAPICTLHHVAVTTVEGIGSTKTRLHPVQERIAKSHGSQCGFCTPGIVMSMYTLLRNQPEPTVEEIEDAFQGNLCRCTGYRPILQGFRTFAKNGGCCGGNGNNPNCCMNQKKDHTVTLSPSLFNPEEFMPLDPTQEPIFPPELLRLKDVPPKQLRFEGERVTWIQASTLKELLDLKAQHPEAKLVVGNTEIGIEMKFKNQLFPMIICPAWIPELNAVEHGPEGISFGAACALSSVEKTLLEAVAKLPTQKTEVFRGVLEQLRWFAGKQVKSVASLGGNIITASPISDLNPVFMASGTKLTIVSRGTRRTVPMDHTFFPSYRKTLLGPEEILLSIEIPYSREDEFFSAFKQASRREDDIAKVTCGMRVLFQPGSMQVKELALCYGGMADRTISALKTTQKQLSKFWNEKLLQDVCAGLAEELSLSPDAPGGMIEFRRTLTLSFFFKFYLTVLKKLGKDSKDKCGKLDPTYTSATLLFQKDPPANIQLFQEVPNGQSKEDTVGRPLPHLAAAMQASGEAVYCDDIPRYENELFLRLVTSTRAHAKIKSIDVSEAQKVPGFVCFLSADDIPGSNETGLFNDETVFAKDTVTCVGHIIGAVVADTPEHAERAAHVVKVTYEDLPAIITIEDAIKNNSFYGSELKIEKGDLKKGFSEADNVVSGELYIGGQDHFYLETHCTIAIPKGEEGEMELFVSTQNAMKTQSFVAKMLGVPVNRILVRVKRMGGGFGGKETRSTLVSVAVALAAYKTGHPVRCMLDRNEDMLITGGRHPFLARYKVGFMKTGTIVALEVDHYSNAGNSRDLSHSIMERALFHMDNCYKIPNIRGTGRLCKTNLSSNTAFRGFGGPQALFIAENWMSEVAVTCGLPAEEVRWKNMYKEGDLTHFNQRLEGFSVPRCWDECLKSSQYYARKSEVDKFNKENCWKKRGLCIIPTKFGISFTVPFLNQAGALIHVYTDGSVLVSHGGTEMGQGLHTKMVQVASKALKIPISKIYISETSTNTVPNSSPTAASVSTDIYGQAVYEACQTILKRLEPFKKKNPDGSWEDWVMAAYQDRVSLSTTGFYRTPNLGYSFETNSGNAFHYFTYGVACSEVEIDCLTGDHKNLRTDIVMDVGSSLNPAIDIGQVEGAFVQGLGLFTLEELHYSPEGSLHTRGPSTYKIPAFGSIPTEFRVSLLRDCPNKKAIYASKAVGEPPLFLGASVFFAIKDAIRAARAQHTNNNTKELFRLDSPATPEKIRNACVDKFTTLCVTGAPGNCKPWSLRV

**Q.** `O=C(OC[C@H]1O[C@@H](OC(=O)c2cc(O)c(O)c(O)c2)[C@H](OC(=O)c2cc(O)c(O)c(O)c2)[C@@H](OC(=O)c2cc(O)c(O)c(O)c2)[C@@H]1OC(=O)c1cc(O)c(O)c(O)c1)c1cc(O)c(O)c(O)c1` [PENTAGALLOYL GLUCOSE] was tested. Which IC50 [1] did it give?
**A.** 3200 nM

**Q.** What about the Ki [2] of the same compound?
**A.** 2120 nM
